Measurements from patent US12134617B1, “Pyrimido[1′6′:1,5]pyrazolo[4,3-c][1,7]naphthyridines as CK2 inhibitors” (KING FAISAL UNIVERSITY, priority 2024, dated 2024).
pIC50: −log10 of the molar value.

Legend:
MCF7 (breast) = assay: In vitro cytotoxic activity (MTT) assay, MCF7; type: cell-based; settings: Homo sapiens; MCF7 cells, exposed for 96 hours, 50% inhibition of cell proliferation; read-out: Cytotoxicity activity IC50, MCF7 (breast)
Procedure: (§1) In Vitro Cytotoxic Activity Assay
(§2) Compounds 1-16 were screened for their in vitro cytotoxic activity utilizing a 3-(4,5-dimethyl-thiazol-2-yl)-2,5-diphenyltetrazolium bromide (MTT) assay against selected cancer human cell lines consisting of PC3 (prostate), HCT116 (colon), A375 (melanoma), H1299 (lung), MIAPaCa-2 (pancreas), HL60 (leukemia), MCF7 (breast), MDA-MB-231 (breast) (T. Mosmann, J. Immunol. Meth., 1983, 65, 55-63). The cells were cultured at 37° C. in RMPI1640 medium supplemented with 10% fetal bovine serum, 50 IU/mL penicillin, and 50 μg/mL streptomycin in a 5% CO2 incubator. All cells were sub-cultured 3 times/week by trypsinisation. Viable cells were seeded and allowed to adhere for 12 hours before a test drug was added in 96-well plates at an initial density of 1.0×10^5 cells/mL. Tumor cell lines were separately exposed to various concentrations of the tested compounds followed by incubation at a temperature of 37° C. during 96 hours inside a medium of fresh RMPI 1640. Cells were subsequently incubated at 37° C. using MTT at 0.5 mg/mL during 4 hours. After removal of supernatant, formazan crystals were dissolved in isopropanol and the optical density was measured at 570 nm. CX-4945 was used as a positive control.

[1] = molecular target: T1, recombinant human CK2 (RRββ-holoenzyme) (Homo sapiens, UniProt P68400); assay: CK2 Kinase Assay (33P-ATP, filter plate); type: biochemical; settings: recombinant human CK2, final ATP concentration 15 μM, 10 min at 30° C.; read-out: protein kinase CK2 IC50
T1 construct: purchased Millipore
T1 sequence (P68400 whole entry): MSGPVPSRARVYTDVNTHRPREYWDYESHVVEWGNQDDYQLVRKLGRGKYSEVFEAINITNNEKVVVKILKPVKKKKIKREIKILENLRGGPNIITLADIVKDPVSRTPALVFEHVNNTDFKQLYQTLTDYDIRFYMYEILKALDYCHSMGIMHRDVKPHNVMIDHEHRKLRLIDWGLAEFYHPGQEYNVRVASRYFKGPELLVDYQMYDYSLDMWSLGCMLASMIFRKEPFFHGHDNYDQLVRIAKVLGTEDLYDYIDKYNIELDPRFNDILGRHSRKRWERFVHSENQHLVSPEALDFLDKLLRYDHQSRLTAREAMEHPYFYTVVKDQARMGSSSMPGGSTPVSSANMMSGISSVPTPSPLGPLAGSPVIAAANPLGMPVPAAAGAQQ
T1 sequence (P67870 whole entry partner): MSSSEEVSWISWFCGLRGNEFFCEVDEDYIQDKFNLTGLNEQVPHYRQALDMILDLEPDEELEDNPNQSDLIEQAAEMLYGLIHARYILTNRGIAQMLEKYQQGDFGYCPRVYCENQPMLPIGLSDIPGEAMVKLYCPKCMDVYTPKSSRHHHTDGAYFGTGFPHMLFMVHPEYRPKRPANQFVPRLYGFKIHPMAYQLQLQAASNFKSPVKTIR
Procedure: Evaluation of Inhibitory Activity on Protein Kinase CK2
CK2 Kinase Assay was conducted using the protocol as described in Pierre F. et al; J. Med. Chem. 2011, 54, 635-654. The tested compounds in aqueous solution were added at a volume of 10 μL to a reaction mixture comprising 10 μL of assay dilution buffer (ADB; 20 mM MOPS, pH 7.2, 25 mM β-glycerol phosphate, 5 mM EGTA, 1 mM sodium orthovanadate, and 1 mM dithiothreitol), 10 μL of substrate peptide (RRRDDDSDDD, dissolved in ADB at a concentration of 1 mM), 10 μL of recombinant human CK2 (RRββ-holoenzyme, 25 ng dissolved in ADB; Millipore). Reactions were initiated by the addition of 10 μL of ATP solution (90% 75 mMMgCl2, 75 μM ATP (final ATP concentration: 15 μM) dissolved in ADB; 10% [γ-33P] ATP (stock 1mCi/100 μL; 3000 Ci/mmol (Perkin-Elmer) and maintained for 10 min at 30° C. The reactions were quenched with 100 μL of 0.75% phosphoric acid and then transferred to and filtered through a phosphor cellulose filter plate (Millipore). After washing each well five times with 0.75% phosphoric acid, the plate was dried under vacuum for 5 min and, following the addition of 15 μL of scintillation fluid to each well, the residual radioactivity was measured using a Wallac luminescence counter. The IC50 values were derived from eight concentrations of test inhibitors.

HCT116 (colon) = assay: In vitro cytotoxic activity (MTT) assay, HCT116; type: cell-based; settings: Homo sapiens, HCT-116; HCT116 cells, exposed for 96 hours, 50% inhibition of cell proliferation; read-out: Cytotoxicity activity IC50, HCT116 (colon)
Procedure: as §1, §2

A375 (melanoma) = assay: In vitro cytotoxic activity (MTT) assay, A375; type: cell-based; settings: Homo sapiens, A-375; A375 cells, exposed for 96 hours, 50% inhibition of cell proliferation; read-out: Cytotoxicity activity IC50, A375 (melanoma)
Procedure: as §1, §2

PC3 (prostate) = assay: In vitro cytotoxic activity (MTT) assay, PC3; type: cell-based; settings: Homo sapiens, PC-3; PC3 cells, exposed for 96 hours, 50% inhibition of cell proliferation; read-out: Cytotoxicity activity IC50, PC3 (prostate)
Procedure: as §1, §2

MDA-MB-231 (breast) = assay: In vitro cytotoxic activity (MTT) assay, MDA-MB-231; type: cell-based; settings: Homo sapiens; MDA-MB-231 cells, exposed for 96 hours, 50% inhibition of cell proliferation; read-out: Cytotoxicity activity IC50, MDA-MB-231 (breast)
Procedure: as §1, §2

H1299 (lung) = assay: In vitro cytotoxic activity (MTT) assay, H1299; type: cell-based; settings: Homo sapiens, NCI-H1299; H1299 cells, exposed for 96 hours, 50% inhibition of cell proliferation; read-out: Cytotoxicity activity IC50, H1299 (lung)
Procedure: as §1, §2

HL60 (leukemia) = assay: In vitro cytotoxic activity (MTT) assay, HL60; type: cell-based; settings: Homo sapiens, HL-60; HL60 cells, exposed for 96 hours, 50% inhibition of cell proliferation; read-out: Cytotoxicity activity IC50, HL60 (leukemia)
Procedure: as §1, §2

MIAPaCa-2 (pancreas) = assay: In vitro cytotoxic activity (MTT) assay, MIAPaCa-2; type: cell-based; settings: Homo sapiens, MIA PaCa-2; MIAPaCa-2 cells, exposed for 96 hours, 50% inhibition of cell proliferation; read-out: Cytotoxicity activity IC50, MIAPaCa-2 (pancreas)
Procedure: as §1, §2

Clc1cccc(Nc2nc3cnccc3c3nn4cnccc4c23)c1 [Compound 1, N-(3-chlorophenyl)pyrimido[1′,6′:1,5]pyrazolo[4,3-c][1,7]naphthyridin-6-amine]
pIC50 (MCF7 (breast)): 5.24 | pIC50 [1]: 7.33 | pIC50 (HCT116 (colon)): 5.82 | pIC50 (A375 (melanoma)): 5.49 | pIC50 (PC3 (prostate)): 5.77 | pIC50 (MDA-MB-231 (breast)): 5.32 | pIC50 (H1299 (lung)): 5.59 | pIC50 (HL60 (leukemia)): 5.36 | pIC50 (MIAPaCa-2 (pancreas)): 5.89
